# Assay results from a melting point compilation (Tetko et al.; mined from patent text by program, amines drawn as free bases though some values may be those of a salt).
row,SMILES,melting point [°C]
1,C=C(C)OC(=O)N1C(=O)C(C)N(C(=O)OC(=C)C)c2ccncc21 (racemic),96 to 97
2,Nc1ncc(C#Cc2ccc(Cl)cc2)c(OCCOCCO)n1,142 to 143
3,CCCCOCCOc1ccc(-c2ccc3c(c2)C=C(C(=O)Nc2ccc(C(O)c4ccccn4)c(OCC(F)(F)F)c2)CCN3C(=O)C(F)(F)F)cc1 (configuration not stated),178 to 181
4,CC(C)(C)c1cc(C(=NN)c2ccccc2)cc(C(C)(C)C)c1O,97.4 to 117
5,CCOC(=O)C(C)=NN(C)c1ccc(C(F)(F)F)cc1,71 to 72
6,COc1cc2c(cc1-c1cccnc1)-c1c(-c3cccs3)c3c(n1CC2)C(=O)N(C(C)C)CCN(C(C)=O)C3,225 to 226
7,Cc1ccc(C=CC(=O)NC(C)c2ccc(NS(C)(=O)=O)c(F)c2)cc1C (configuration not stated),212 to 213
8,CNC(=O)c1ccc(-c2ccc3oc(C4CCN(C(=O)OC(C)C)CC4)nc3c2)cc1F,116 to 120
9,COC(=O)COc1ccc(C(=O)CCCl)cc1,89 to 90
10,O=C1CCC2(CC1)CC(=O)NC2=O,154
11,CCOC(=O)Cn1c2c([nH]c(=O)c1=O)CCC1=C2C=C(N)CC1,238
12,COc1ccc(-c2[nH]nc3c2C(=O)c2c(NC(=O)Cc4cccc(OC)c4)cccc2-3)cc1,> 300
13,COc1ccc(Cn2nc(NC(=O)c3cc(NC(=O)c4cc([N+](=O)[O-])nn4Cc4ccc(OC)cc4)nn3Cc3ccc(OC)cc3)cc2C(=O)O)cc1,258 to 260
14,CCN(CC)c1ccc2nc3c4ccccc4c(=Nc4nc5ccc(Cl)cc5s4)cc-3oc2c1,229 to 231
15,O=C(NCCO)c1[nH]c2ccc(Cl)cc2c1-c1ccccc1F,178 to 180
16,O=[N+]([O-])c1cc([N+](=O)[O-])c2ccccc2c1Nc1ccc(OC(F)(F)F)c(Cl)c1,140
17,FC(F)(F)c1ccc(Cl)nn1,51 to 52
18,Cc1nc(N)sc1S(=O)(=O)NCCO,151
19,O=C1OCCN1CCCN1C(=O)N2C[C@@H](Cc3ccccc3)N=C2c2[nH]c(C3CCCC3)nc21,210 to 212
20,O=C(NC1CCN(CCCc2ccc(F)cc2)C1)C12CC3CC(CC(C3)C1)C2 (configuration not stated),114 to 115
21,CC(C)n1nc(-c2sc(C(=O)NCCc3ccccn3)nc2-c2ccccc2)ccc1=O,144 to 147
22,COC(=O)c1ccc(OCCCN(C(=O)CCC(=O)Nc2ccc(Cl)cc2)c2ccc(Cl)cc2)cc1,128 to 130
23,CC(Cn1ccnn1)n1nnc2cc3c(=O)n(C(C)Cn4ccnn4)nnc3cc2c1=O (configuration not stated),192 to 195
24,CC#CCOc1cc2c(cc1CCC)OCO2,39 to 40
25,CC(C)(C)OC(=O)C[C@H](NC(=O)c1cccc(NC(=O)Cc2ccc(C(N)=S)cc2)c1)C(=O)N[C@@H](Cc1ccccc1)C(=O)OC(C)(C)C,99
26,COc1ccc(CN(C)CCNc2ccc(NC(=O)c3cccc4c(=O)c5cccc(OC)c5[nH]c34)cc2)cc1OC,196

row,SMILES,melting point [°C]
1,CNC(=NS(C)(=O)=O)NCCCCc1csc(NC(N)=NCCO)n1,128 to 132
2,CO[C@@H](Cc1ccc(OCCc2nc(-c3ccc(C(F)(F)F)cc3)oc2C)c2ccccc12)C(=O)O,167 to 168
3,CC(Cc1ccc(C(C)(C)C)cc1)C[N+]1([O-])CC(C)OC(C)C1 (configuration not stated),115 to 118
4,CC(C)CC(NS(=O)(=O)c1cccc2ccccc12)C(=O)NC(C(C)C)C(O)c1c(-c2ccccc2)c1=O (configuration not stated),109 to 115
5,C#CC[C@H](c1nc2cc(Cl)ccc2c(=O)n1Nc1ccccc1)N(CCCN)C(=O)c1cccc(F)c1F,168 to 170
6,Cn1c(COc2ccc(CC3SC(=O)N(C(c4ccccc4)(c4ccccc4)c4ccccc4)C3=O)cc2)nc2cc(Br)cnc21 (configuration not stated),97 to 100
7,Nc1nc2ccccc2c2c1nc(CCC1CCCC1)n2CCOc1ccccc1,165
8,CCOC(=O)Cc1ccc(-c2nc(COc3ccc(COc4nn(-c5ccccc5)cc4/C=C/c4coc(CC)n4)cc3OC)c(C)o2)cc1,155 to 157
9,Nc1sc2c(c1C(=O)c1ccc(Cl)cc1)CCS2,146 to 150
10,Cc1ccccc1CC(=NC#N)NC(NC(=O)CCCc1cccs1)C(C)(C)C (configuration not stated),154 to 155
11,COc1ccc(Cl)cc1C(=O)NCCc1ccc(-c2ccc(Cl)cc2)c(S(N)(=O)=O)c1,185
12,CC(C)c1ccc(N(Cc2ccc(N(C)C)cc2)C(=O)C2CCCc3cc(OCCN(C)C)ccc32)cc1 (configuration not stated),133
13,CC(=O)ON1C(C)(C)CC(OC(=O)c2cccc(C(=O)OC3CC(C)(C)N(OC(C)=O)C(C)(C)C3)c2)CC1(C)C,98 to 101
14,CC(C#Cc1ccc(C=Cc2ccccc2)o1)N(O)C(N)=O (configuration not stated),168
15,CCCC(C)(CC)C(=O)O[C@H]1C[C@H](O)C=C2C=C[C@H](C)[C@H](CC[C@@H]3C[C@@H](O)CC(=O)O3)[C@H]21 (some centres not stated),126 to 128
16,CS(=O)(=O)NC(=O)CCn1c2ccc(O)cc2c2c3c(c(-c4ccccc4Cl)cc21)C(=O)NC3=O,290 to 296
17,C=CCn1cnc2c1c(=O)n(CCCCC(C)O)c(=O)n2C (configuration not stated),71
18,CCOC(=O)N1CC[C@H](O)[C@@H]1C(c1ccccc1)c1ccccc1 (relative stereo),104 to 105
19,CC(C)(C)NC(=O)[C@@H]1CSCN1C(=O)OCc1ccccc1,96 to 98
20,COc1cc2nc(N)nc(-c3cc(-c4ccccc4)cc(-c4ccc(O)cc4)c3)c2cc1OC,255 to 257
21,CC(C)C(=O)Nc1nc(N)cnc1-c1cc(Cl)cc(Cl)c1Cl,105 to 108
22,CCOC(=O)c1c(C(F)F)nc(C(F)(F)F)c(C(=O)OCC)c1Cl,35 to 40
23,CNC(=O)NCCCCC1CCSS1 (configuration not stated),89 to 90
24,CC(C)(C)OC(=O)NCC(CCn1ccc(=O)[nH]c1=O)COC(c1ccccc1)(c1ccccc1)c1ccccc1 (configuration not stated),86 to 88
25,CCNC(=O)NCCC1CCCc2ccc(OC)cc21 (configuration not stated),70 to 71

# Now from value to compound:
row,melting point [°C],SMILES
1,209 to 210,Cc1ncc([N+](=O)[O-])n1CCN1C(=O)NC(c2ccccc2)(c2ccccc2)C1=O
2,206 to 207,OC(Cc1nnccc1-c1c(-c2ccccc2)nn2ccccc12)C(Cl)(Cl)Cl (configuration not stated)
3,200 to 207,COc1cc(CNC(=O)c2cc3c(=O)n(Cc4ccc([N+](=O)[O-])nc4)c(=O)n(C)c3s2)ccn1
4,111 to 113,CCCCn1nc(-c2ccc(F)cc2)c(-c2ccc(S(C)(=O)=O)cc2)cc1=O
5,180,CS(=O)(=O)c1ccc(N2C[C@H](COc3ccon3)OC2=O)cc1
6,178 to 179,Cc1cccc(-c2nc(N)sc2-c2ccnc(NCc3ccccc3)c2)c1
7,240 to 242,CC(C)(C)c1cc(-c2nn(C(=O)c3cccs3)c3ncccc23)cc(C(C)(C)C)c1O
8,114 to 115,CC(C)(C)c1ccc(C(N)=O)cc1[N+](=O)[O-]
9,192 to 193,CCOc1ccc(-c2csc(-c3cccc(C(=O)OC)c3)n2)cc1
10,117 to 119,CNC(=O)n1nc(Oc2ccc(C(F)(F)F)cc2[N+](=O)[O-])c(C)c1C
11,147 to 149,CC1(C)CNc2cc3[nH]c(-c4ccncc4)nc3cc21
12,110 to 111,CC[Si](CC)(CC)OC1CCCc2cnc3ccc(OCc4ccccc4[N+](=O)[O-])cc3c21 (configuration not stated)
13,197 to 198,CC1Cc2c(N3C(=O)c4ccccc4C3=O)ccc(Cl)c2O1 (configuration not stated)
14,175 to 178,c1cc(Nc2nccc(-c3ccco3)n2)cc(-n2ccnc2)c1
15,267 to 268,C=CC[C@H](C(N)=O)[C@@H](CC(C)C)C(=O)NC1N=C(N(C)c2ccccc2)c2ccccc2N(C)C1=O (some centres not stated)
16,130 to 131,O=S(=O)(c1ccc(Cl)cc1)C(c1cccnc1)c1cc(F)ccc1F (configuration not stated)
17,141 to 143,CN(C)C(=S)Oc1ccc(Br)cc1C=O
18,173 to 175,Cc1ncccc1Oc1ccc(NC(=O)Nc2ccc3[nH]c4c(c3c2)CCN(C(=O)OC(C)(C)C)CC4)cn1
19,122 to 124,COc1ccc2cc(-c3cnc(Cc4ccccc4)o3)ccc2c1
20,198 to 199,O=c1c(CCCc2nccs2)cc2cccnc2n1-c1cccc([N+](=O)[O-])c1
21,176,CC(C)c1nnc2ccc(-c3ocnc3-c3c(F)cccc3F)cn12

row,melting point [°C],SMILES
1,116 to 120,CCC(Nc1cc(C)nc(Oc2c(C)cc(C)cc2C)c1C(=O)OC)C(C)O (configuration not stated)
2,170 to 172,N#Cc1ccc(Nc2cccc(I)c2)c(N)c1
3,143 to 145,CCOC(=O)C1=C(C)NC(C)=C(C(=O)OCCSc2ccccc2)C1C (configuration not stated)
4,164,Cc1conc1-c1nnc2c3ccccc3c(OCc3ccccn3)nn12
5,175 to 177,CCOC(=O)c1c(-c2ccccc2)c2ccc(OC)cc2[nH]c1=O
6,190 to 192,CN1N=CC=Cc2ccccc21
7,215 to 217,Cc1ccc(N2CCCCC2)c(C(C)C(C(N)=O)c2ccc(C(=O)O)cc2)c1 (configuration not stated)
8,265,Cc1ccc2c(c1)Cn1ccnc1N2
9,114 to 116,Clc1ccc2nc(-c3ccccc3)cc(Cl)c2c1
10,131 to 132,CS(=O)(=O)c1ccc(-c2cnn(CCC(F)=C(F)F)c(=O)c2-c2ccc(F)cc2)cc1
11,52 to 54,O=C(c1ccc(C2CCCCC2)cc1)c1cccnc1
12,170,Cc1cccc(NC(=O)NC(C(=O)O)C(C)C)c1 (racemic)
13,152 to 154,COc1cc(Nc2c(C#N)cnc3cc(/C=C/CCN4CCN(C)CC4)ccc23)c(Cl)cc1Cl
14,180 to 182,CC(Sc1cc2cc(O)ccc2[nH]1)(C(=O)O)c1ccccc1 (configuration not stated)
15,122 to 124,O=S(=O)(Cc1ccccc1)c1ncc(Cl)cn1
16,179 to 180,CC(C)(C)N(NC(=O)c1ccccn1)C(=O)c1ccccc1Br
17,201 to 203,Cn1cc(C2=C(c3cccc(NC4COC(C)(C)OC4)c3)C(=O)NC2=O)c2ccccc21
18,235 to 237,COc1cc2c(Nc3ccc(Sc4nccn4C)c(Cl)c3)c(C#N)cnc2cc1N1CCC(N2CCN(C)CC2)CC1
19,189 to 191,COc1ccc(-n2c(-c3ccc(Cl)cc3Cl)nc(C(=O)O)c2C)cc1
20,> 310,O=C(O)c1cc2cc(Cl)ccc2[nH]c1=O
